Experiment: Inhibition of human SRB1-mediated Hepatitis C virus genotype 2a entry into human 293T cells by immunoblotting

Row | IC50 | SMILES
1 | 0.23 µM | COC(=O)c1ccc2c(c1)c1ccccc1n2CCCN1C[C@@H](C)N[C@@H](C)C1
2 | 1.2 µM | C[C@@H]1CN(CCCn2c3ccccc3c3ccccc32)C[C@H](C)N1 [9-(3-(3,5-dimethylpiperazin-1-yl)propyl)-9H-carbazole]
3 | 0.63 µM | CC(C)OC(=O)c1ccc2c(c1)c1ccccc1n2CCCN1C[C@@H](C)N[C@@H](C)C1
4 | 0.6 µM | CCOC(=O)c1ccc2c(c1)c1ccccc1n2CCCN1C[C@@H](C)N[C@@H](C)C1

From BindingDB's records for doi:10.1016/j.bmcl.2011.09.019 (Itherx Pharmaceuticals, 2011)
